Values of other authors as cited in PMC8880098, “Synthesis, Antibacterial Evaluation, and Computational Studies of a Diverse Set of Linezolid Conjugates” (Pharmaceuticals, 2022).
Converted amounts (≈) assume the structure as drawn.

Tests used:
[1] = test system: Staphylococcus aureus ATCC 6538; parameters: method as in PMID 27025339; details: reference fluoroquinolones, cited from earlier work; for MIC (μmol), S. Aureus (ATCC 6538): value in parentheses
[2] = test system: Pseudomonas aeruginosa ATCC 15692; parameters: method as in PMID 27025339; details: reference fluoroquinolones, cited from earlier work; for MIC (μmol), P. Aeruginosa (ATCC 15692): value in parentheses

Structure (SMILES) | MIC, μg/mL ± SE, S. Aureus (ATCC 6538) [1] [µg/mL] | MIC (μmol), S. Aureus (ATCC 6538) [1] [µmol] | MIC, μg/mL ± SE, P. Aeruginosa (ATCC 15692) [2] [µg/mL] | MIC (μmol), P. Aeruginosa (ATCC 15692) [2] [µmol]
O=C(O)c1cn(C2CC2)c2cc(N3CCNCC3)c(F)cc2c1=O [Ciprofloxacin] | 1250.0 ± 9.6 (≈ 3770 µM) | 3772.4 | 4.8 ± 0.5 (≈ 14.5 µM) | 14.5
CCn1cc(C(=O)O)c(=O)c2cc(F)c(N3CCNCC3)cc21 [Norfloxacin] | 1250.0 ± 14.2 (≈ 3910 µM) | 3914.3 | 4.8 ± 0.2 (≈ 15 µM) | 15.0
